Our source for the Growth and GI50 values is ChEMBL document CHEMBL1136447, “Biological investigation and structure-activity relationship studies on azadirone from Azadirachta indica A. Juss” (2003).

The structures appear in SMILES notation.

Experiment [1] deals with SK-OV-3. The experiment is described as follows: In vitro cytotoxic activity against Ovarian (SK-OV3) cell line at a concentration of 10e-5 M. It counts as functional, Homo sapiens.
For experiment [2], the system named is M14. The experiment is described as follows: In vitro cytotoxic activity against Melanoma (M14) cell line at a concentration of 10e-5 M. It counts as functional, Homo sapiens.
The subject of experiment [3] is SK-OV-3. The experiment is described as follows: In vitro cytotoxic activity against Ovarian (SK-OV3) cell line. To be noted: Homo sapiens. It is filed as functional.
The test system of experiment [4] is M14. The experiment in a line: In vitro cytotoxic activity against Melanoma (M14) cell line. The following applies: Homo sapiens. It is filed as functional.
For experiment [5], the system named is NCI-H522. The experiment is described as follows: In vitro cytotoxicity against H522 (human adenocarcinoma) cell line at a concentration of 10e-5 M.
The test system of experiment [6] is SW-620. The experiment in a line: In vitro cytotoxic activity against colon (SW620) cell line at a concentration of 10e-5 M. It counts as functional, Homo sapiens.
Experiment [7] concerns A498. The experiment in a line: In vitro cytotoxic activity against renal (A498) cell line at a concentration of 10e-5 M. It counts as functional, Homo sapiens.
For experiment [8], the system named is SW-620. The experiment is described as follows: In vitro cytotoxic activity against colon (SW620) cell line. It counts as functional. The following applies: Homo sapiens.
In experiment [9] the test system is DU-145. The experiment is described as follows: In vitro cytotoxic activity against prostate (DU145) cell line at a concentration of 10e-5 M. It is filed as functional, Homo sapiens.
Experiment [10] relates to U-251. The experiment is described as follows: In vitro cytotoxic activity against CNS(U251) cell line. It counts as functional. To be noted: Homo sapiens.
The subject of experiment [11] is NCI-H522. The experiment is described as follows: In vitro cytotoxic activity against lung (H522) cell line. The following applies: Homo sapiens.
Experiment [12] concerns A498. The experiment is described as follows: In vitro cytotoxic activity against renal (A498) cell line. The following applies: Homo sapiens. It counts as functional.
Experiment [13] relates to U-251. The experiment in a line: In vitro cytotoxic activity against CNS(U251) cell line at a concentration of 10e-5 M. It counts as functional, Homo sapiens.
The subject of experiment [14] is MCF7. The experiment in a line: In vitro cytotoxic activity against breast (MCF-7/ADR) cell line. It is filed as functional. The following applies: Homo sapiens.
In experiment [15] the test system is DU-145. The experiment is described as follows: In vitro cytotoxic activity against prostate (DU145) cell line. It counts as functional. To be noted: Homo sapiens.
For experiment [16], the system named is MCF7. The experiment is described as follows: In vitro cytotoxic activity against breast (MCF-7/ADR) cell line at a concentration of 10e-5 M. It counts as functional, Homo sapiens.
The subject of experiment [17] is NCI-H522. The experiment is described as follows: In vitro cytotoxic activity against lung (H522) cell line at a concentration of 10e-5 M.

On to `CC1(C)C(=O)C=C[C@@]2(C)C1C[C@@H](O)[C@@]1(C)C3=CC[C@@H](c4ccoc4)[C@]3(C)CCC21` (stereo partly drawn), for which the Growth in [1] is reported as 64%; in experiment [2] it was 15.8%; in [5] it was 100%; in experiment [6], 100%; in experiment [7] it was 65%; in experiment [9], 46%. Also, the Growth is 46% in experiment [13] and 36% in [16]. Moreover, the GI50 (in general, the concentration giving 50% growth inhibition) in [3] was over 100 µM; in experiment [4], 9 µM; in [8], over 100 µM; in [10], 3.5 µM; in [11], over 100 µM; in experiment [12] it was over 100 µM. Further, the concentration for 50% growth inhibition (GI50) in [14] is 5 µM; in experiment [15] it was 9.5 µM.
As to `CCOC1=C[C@@]2(C)C(C[C@@H](OC(C)=O)[C@@]3(C)C4=CC[C@@H](c5ccoc5)[C@]4(C)CCC23)C(C)(C)C1=O` (stereo partly drawn), the Growth in experiment [1] is recorded as 61%; in experiment [2], 40%; in [5] it was 52%; in experiment [6], 65%; in experiment [7], 33%; in experiment [9], 35%. Further, the Growth in experiment [13] is 70%; in experiment [16], 51%. The GI50 in experiment [3] was 40 µM; in experiment [4], 20 µM; in experiment [8], 5 µM; in experiment [10], 5 µM; in experiment [11], 30 µM; in [12] it was 40 µM. Also, the concentration for 50% growth inhibition (GI50) in experiment [14] came out at 8 µM; in experiment [15], 50 µM.
Regarding `CC1(C)C(=O)C=C[C@@]2(C)C1C[C@@H](OC(=O)CCl)[C@@]1(C)C3=CC[C@@H](c4ccoc4)[C@]3(C)CCC21` (stereo partly drawn), the Growth in [1] is recorded as 14%; in experiment [2] it was -3%; in experiment [17], 5%; in experiment [6], 12%; in experiment [7], -8%; in experiment [9] it was 13%. The Growth is 22% in [13] and -2% in experiment [16]. In addition, the GI50 came to 5 µM in experiment [3]; 5 µM in [4]; 5 µM in experiment [8]; 6 µM in [10]; 4 µM in experiment [11]; 4 µM in experiment [12]. Further, the GI50 in experiment [14] was found to be 3 µM; in experiment [15] it was 5 µM.
On to `CC(=O)O[C@@H]1CC2C(C)(C)C(=O)C=C[C@]2(C)C2CC[C@]3(C)C(=CC[C@H]3C3=CC(=O)OC3O)[C@@]21C.CC(=O)O[C@@H]1CC2C(C)(C)C(=O)C=C[C@]2(C)C2CC[C@]3(C)C(=CC[C@H]3C3=CC(O)OC3=O)[C@@]21C` (stereo partly drawn), for which the Growth is reported as 41.6% in experiment [1]; 71.3% in experiment [2]; 73.3% in experiment [5]; 100% in [6]; 70.3% in [7]; 24.8% in experiment [9]. The Growth in [13] is on record as 44.3%; in [16] it was -13%.
In the case of `CC1(C)C(=O)C=C[C@@]2(C)C1C[C@@H](OC(=O)Nc1ccccc1)[C@@]1(C)C3=CC[C@@H](c4ccoc4)[C@]3(C)CCC21` (stereo partly drawn), the Growth is reported as 100% in experiment [1]; 74% in [2]; 51% in experiment [5]; 64% in experiment [6]; 100% in experiment [7]; 76% in experiment [9]. The Growth was 71% in experiment [13] and 55% in [16].
With `CCO[C@@H]1CC2C(C)(C)C(=O)C=C[C@]2(C)C2CC[C@]3(C)C(=CC[C@H]3c3ccoc3)[C@@]21C` (stereo partly drawn), the Growth in experiment [1] came to 100%; in [2] it was 61%; in [5], 69%; in experiment [6], 81%; in experiment [7], 45%; in [9] it was 76%. The figures for the Growth in experiment [13] and in [16] were 63% and 66%, respectively.
Turning to `CCCC(=O)O[C@@H]1CC2C(C)(C)C(=O)C=C[C@]2(C)C2CC[C@]3(C)C(=CC[C@H]3c3ccoc3)[C@@]21C` (stereo partly drawn), the Growth in experiment [1] was 90%; in [2], 59%; in experiment [5] it was 40%; in experiment [6], 49%; in experiment [7], 43%; in experiment [9], 68%. In addition, the Growth in experiment [13] is 15%; in experiment [16] it was 57%.
On to `CC1(C)C(O)C=C[C@@]2(C)C1C[C@@H](O)[C@@]1(C)C3=CC[C@@H](c4ccoc4)[C@]3(C)CCC21` (stereo partly drawn), for which the Growth came to 100% in experiment [1]; 100% in experiment [2]; 97% in [5]; 79.6% in experiment [6]; 88.2% in experiment [7]; 100% in experiment [9]. Besides, the figures for the Growth in experiment [13] and in experiment [16] were 100% and 76%, respectively.
With `COC1=C[C@@]2(C)C(C[C@@H](OC(C)=O)[C@@]3(C)C4=CC[C@@H](c5ccoc5)[C@]4(C)CCC23)C(C)(C)C1=O` (stereo partly drawn), the Growth in experiment [1] is given as 38%; in experiment [2], 67%; in experiment [5] it was 82%; in experiment [6], 35%; in [7], 50%; in experiment [9] it was 47%. For the same molecule, the values for the Growth in experiment [13] and in experiment [16] were 63% and 58%, respectively. For the same molecule, the GI50 was 35 µM in experiment [3]; 40 µM in [4]; 20 µM in [8]; 20 µM in experiment [10]; 40 µM in experiment [11]; 40 µM in experiment [12]. Moreover, the GI50 in experiment [14] was 95 µM; in experiment [15] it was 40 µM.
For the molecule `CCN(CC)CCO/N=C1\C=C[C@@]2(C)C(C[C@@H](OC(C)=O)[C@@]3(C)C4=CC[C@@H](c5ccoc5)[C@]4(C)CCC23)C1(C)C` (stereo partly drawn), the Growth is recorded as 7% in [1]; 35% in [2]; 26% in experiment [5]; 23% in experiment [6]; 7% in [7]; 46% in experiment [9]. For the same molecule, the Growth in experiment [13] was found to be 5%; in experiment [16] it was 28%. Moreover, the 50% growth inhibitory concentration (GI50) in experiment [3] is 3 µM; in experiment [4], 4 µM; in [8], 4 µM; in [10] it was 4 µM; in experiment [11], 3 µM; in experiment [12], 8 µM. Besides, the GI50 was 6 µM in [14] and 7 µM in experiment [15].
For `CC(C)C(=O)O[C@@H]1CC2C(C)(C)C(=O)C=C[C@]2(C)C2CC[C@]3(C)C(=CC[C@H]3c3ccoc3)[C@@]21C` (stereo partly drawn), the Growth worked out at 84% in experiment [1]; 95% in [2]; 54% in [5]; 61% in [6]; 74% in experiment [7]; 69% in experiment [9]. In addition, the Growth was determined as 40% in [13] and 57% in experiment [16].
